Entries after “also recorded” stand apart in the source; their conditions may differ.
Legend:
dogs = dogs with CCDS; reported in FDA Consumer Magazine 2000; cited from earlier work
Beagle Dogs [1] = test: General Activity Test (Actiwatch post-dose activity); format: in vivo, Canine; conditions: for activity as a function of dose and treatment day: FIG. 2, suggestion of a drug effect
Description: (§1) Dogs were weighed prior to study initiation. Capsules containing dimebon were prepared for each dog according to weight. The following doses of dimebon were used: 2, 6 and 20 mg/kg. Technicians not otherwise involved in the study prepared the capsules. During the control phase of the study, subjects were administered empty gelatine capsules. The test and control articles were administered to the dogs PO within meatballs of moist dog food once daily. Individual subjects were administered the capsule at the same time on each treatment day.
(§2) The design of the study consisted of four 7 day test blocks (a test block refers to the 3 day washout period combined with the 4 day treatment/testing period). The first test block was a control and no subject received treatment during those seven days. Subsequently, the study then followed a Latin-square design, in which all of the subjects were tested at all the three dose levels of the test article in a different order (see Table 3 below). To accomplish this, the twelve subjects were divided into six groups of two subjects balanced for sex and age to the extent possible.
At the start of the study, an Actiwatch collar was placed on each dog and the collar remained on for the study duration of the study. All behavioral testing followed previously established protocols. For behavioral tests conducted in the open field arena, data analyses were conducted using the DogAct behavioral software (CanCog Technologies Inc., Toronto, ON, Canada). Actiware-Rhythm® software was used to obtain activity counts for the day-night measure.
The Actiwatch data were analyzed to look at both changes in activity pattern temporally linked to treatment and changes in day/night activity.
(§3) To assess changes in activity linked to the treatment condition, hourly activity over a five hour period after dosing was calculated. The data were then analyzed with a repeated measures analysis of variance (ANOVA), with time post dosing (1-5 hours), treatment days (1-4 for each condition) and dose (control, 2, 6, and 20 mg/kg) as within subject variables. Test order served as a between subject variable in the initial analysis. To examine day night-activity levels, day and night activity levels were calculated for each 24-hr period. The data were first analyzed with a repeated measures ANOVA, with dose (control, 2, 6, and 20 mg/kg), treatment day (1-4 for each condition), and phase (day and night) as within-subject variables. Once again order served as a between-subject variable.
(§4) Post-dose activity patterns and twenty-four hour activity rhythms were assessed using the Actiwatch method, which detects alterations in activity and changes in phase of the activity cycle as described previously (Siwak et al. (2003) Circadian Activity Rhythms in Dogs Vary with Age and Cognitive Status. Behavioral Neuroscience, 111:813-824). Briefly, general activity patterns were monitored for 28 continuous days using the Mini-Mitter® Actiwatch-16® activity monitoring system (Mini-Mitter Co., Inc., Bend, Oreg.) adapted for dogs. The Actiwatch contained an activity sensory that was programmed to provide counts of total activity at 5 minute intervals. Putting the Actiwatch on a dog's collar allowed for recording uninterrupted patterns of activity and rest.
The first analysis of the Actiwatch data was intended to provide an overall picture of the post-dosing effect of the compound on behavioral activity. Accordingly, data for the 5-hour period following dosing was first segregated into 5 one-hour blocks. Thus, each subject's data for each treatment day consisted of 5 consecutive one-hour activity scores. The data were then analyzed with a repeated measures analysis of variance, with time post dosing (1-5 hours), treatment days (1-4 for each condition) and dose (control, 2, 6, and 20 mg/kg) as within subject variables. Test order served as between subject variables in the initial analysis. […]

Beagle Dogs [2] = test: Day Night Activity (Actiwatch day-night activity rhythms); format: in vivo, Canine
Description: as §1, §2
At the start of the study, an Actiwatch collar was placed on each dog and the collar remained on for the study duration of the study. All behavioral testing followed previously established protocols. […]
as §3, with “Test order served as a between subject variable in the initial analysis.” left out, “Once again order served as a between-subject variable.” left out
as §4, with “The Actiwatch contained an activity sensory that was programmed to provide counts of total activity at 5 minute intervals. Putting the Actiwatch on a dog's collar allowed for recording uninterrupted patterns of activity and rest.” left out
The day/night activity data were analyzed with a repeated-measures ANOVA, with dose, wash-in day, and phase as within-subject variables and test order as a between-subject variable.

Beagle Dogs [3] = test: Curiosity Test (exploratory behavior, open-field arena); format: in vivo, Canine; conditions: for rearing frequency, controls versus dose group: FIG. 10
Description: as §1, §2
After completing the control test block, each group received three doses of the test article in the order prescribed for that group. For each test block, subjects received their respective treatment for the first four days. On the fourth day of each test block, subjects were tested on the curiosity test twice; the first was one hour after article administration and the second was four hours after article administration. The remaining three days were considered washout days for each test block (Table 4).
For the curiosity test, each behavioral measure was analyzed individually using a repeated measures ANOVA with dose (control, 2, 6, and 20 mg/kg), test (first and second) as within-subject variables and order as a between-subject variable.
This is a test of exploratory behavior, which assesses both attention to environment and locomotor activity (Siwak et al. (2001) Effect of Age and Level of Cognitive Function on Spontaneous and Exploratory Behaviors in the Beagle Dog. Learning and Memory, 8:[…].). Subjects were placed in the open-field arena for a 10-minute period. Seven objects were placed in the arena and the subjects were permitted to freely explore the room and the objects.
The open field activity arena consisted of an empty test room (approximately 8′×10′) with strips of electrical tape applied to the floor in a grid pattern of rectangles to facilitate tracking. The floor of the test room was mopped prior to testing and between dogs to reduce olfactory cues from affecting testing. For tests conducted in the open field, the dogs were placed in the test room and their behavior was videotaped over a 10-minute period. On two of the test sessions, subjects were tested for 5 rather than 10 minutes. Accordingly, the data from those two dogs were not included in the initial analysis, which was carried out over all dose levels. However, all dogs were tested on the control and 20 mg/kg dose and a separate analysis was carried out comparing control and high dose treatments.
The movement pattern of the dog within the test room was recorded. In addition, keyboard keys were pressed to indicate the frequency of occurrence of the various behaviors including: sniffing, urinating, grooming, jumping, rearing, inactivity and vocalization. The software also provided a total measure of distance for loco-motor activity.
In addition to general activity, the interactions with the objects (picking-up, contacting, sniffing and urinating on the objects) were assessed and used as measures of exploratory behavior.

Beagle Dogs [4] = test: Observation of abnormal behavioral responses / behavioral toxicity during study; format: in vivo, Canine; conditions: 2, 6 and 20 mg/kg
Description: All dogs received veterinary examinations prior to initiation in the study. Over the course of the study, trained personnel recorded all adverse events and contacted the responsible veterinarian or study director when necessary.
The effect also appeared dependent on baseline activity level, the greater the baseline level the smaller the treatment effect.

[5] = 2, 6 and 20 mg/kg, dihydrochloride

C#CCN(C)[C@H](C)Cc1ccccc1 [Anipryl®]
fraction of cases in which it does not work (dogs): about ⅓

Cc1ccc2c(c1)c1c(n2CCc2ccc(C)nc2)CCN(C)C1.Cl.Cl [dimebon, 2,8-dimethyl-5-(2-(6-methyl-3-pyridyl)-ethyl)-2,3,4,5-tetrahydro-1H-pyrido(4,3-b)indole dihydrochloride]
activity at 5 hours post-dosing compared to control (Beagle Dogs [1]; 6 mg/kg PO once daily, FIG. 1): generally higher | activity as a function of dose and treatment day (Beagle Dogs [1]; 6 mg/kg): increased activity | activity at 5 hours post-dosing compared to control (Beagle Dogs [1]; 20 mg/kg PO once daily, FIG. 1): generally higher | activity as a function of dose and treatment day (Beagle Dogs [1]; 20 mg/kg): increased activity | behavioral activity (summary) (Beagle Dogs [1]; [5]): trend towards an increase in activity with an increase in dosage; also recorded: moderate increase in behavioral activity | total activity as a function of dose (Beagle Dogs [1]; control, 2, 6, 20 mg/kg, FIG. 3, not statistically significant, p=0.192360): dose-dependent increase in activity | decrease of activity with time following treatment (Beagle Dogs [1]; two highest dose levels, FIG. 1): the decrease is smaller | ratio of day time activity to night time activity (Beagle Dogs [2]; 2 mg/kg, FIG. 6, did not achieve statistical significance): highest | day:night activity ratio (Beagle Dogs [2]; 20 mg/kg): not altered | night time activity (Beagle Dogs [2]; 20 mg/kg): increased night time activity | day/night activity as a function of dose (Beagle Dogs [2]; control, 2, 6, 20 mg/kg, did not achieve statistical significance, p=0.158556): overall dose-dependent increase in activity | change of rearing frequency over the two tests (Beagle Dogs [3]; 2 mg/kg): decrease in rearing frequency | object sniff frequency compared to control (Beagle Dogs [3]; 2 mg/kg, p=0.085660, FIG. 14): lower occurrence of object sniffing | change of rearing frequency over the two tests (Beagle Dogs [3]; 6 mg/kg): rearing frequency increased over the two tests | change of rearing frequency over the two tests (Beagle Dogs [3]; 20 mg/kg): rearing frequency increased over the two tests | exploratory behavior (Beagle Dogs [3]; 20 mg/kg): increase in exploratory behavior | frequency of object pickup (Beagle Dogs [3]; 20 mg/kg compared to 2 mg/kg, p=0.10445, FIG. 12): greater frequency of picking up objects | locomotor activity on the second curiosity test (Beagle Dogs [3]; 20 mg/kg, 4 h after administration): increased locomotor activity | object contact duration compared to controls (Beagle Dogs [3]; 20 mg/kg, especially on the second test, FIG. 13): increased contact | duration of action (Beagle Dogs [3]; 20 mg/kg, manifested by locomotor activity on second curiosity test and night time activity): longest duration of action | change of inactivity over the two tests (Beagle Dogs [3]; 20 mg/kg, secondary analysis control vs high dose, interaction p=0.098076, FIG. 11): decreased over the two tests | change of object sniff frequency over the two tests (Beagle Dogs [3]; 20 mg/kg, secondary analysis, interaction p=0.061260, FIG. 16): object sniff frequency increased over the two tests | locomotor activity on first and second test (Beagle Dogs [3]; 20 mg/kg, tests 1 h and 4 h after administration, FIG. 8): activity was increased on both tests | effect on most behaviors in the exploratory behavior test (Beagle Dogs [3]; 2, 6 and 20 mg/kg): did not significantly affect most behaviors | exploration (summary of exploratory behavior test) (Beagle Dogs [3]; [5]): generally increased; also recorded: dose-dependent trend towards increased exploration | rearing frequency, dose effect, secondary analysis (Beagle Dogs [3]; control vs 20 mg/kg only, p=0.086315): marginally significant effect of dose | locomotor activity, dose effect (ANOVA) (Beagle Dogs [3]; control, 2, 6, 20 mg/kg): not significant | urination frequency, effect of treatment (Beagle Dogs [3]; control, 2, 6, 20 mg/kg, FIG. 9): no effects of treatment were found | rearing frequency, dose effect (ANOVA) (Beagle Dogs [3]; control, 2, 6, 20 mg/kg, p=0.000846): significant dose effect | object contact duration, dose effect (ANOVA) (Beagle Dogs [3]; control, 2, 6, 20 mg/kg, p=0.001384): significant dose effect | object sniff frequency, dose effect (ANOVA) (Beagle Dogs [3]; control, 2, 6, 20 mg/kg, p=0.056856): marginally significant effect of dose | object pick-up, dose effect (ANOVA) (Beagle Dogs [3]; control, 2, 6, 20 mg/kg, p=0.079968): marginally significant effect of dose | rearing frequency, controls versus dose group (Beagle Dogs [3]; high dose group, p=0.025826): controls showing significantly less rearing | rearing frequency, controls versus dose group (Beagle Dogs [3]; low dose group, p=0.0258): controls showing significantly less rearing | behavioral toxicity (Beagle Dogs [4]): nor were there other indications of behavioral toxicity | stereotypical behavior (Beagle Dogs [4]): None of the dogs showed any stereotypical behavior | abnormal behavioral response (Beagle Dogs [4]; dihydrochloride): None of these results, however, is indicative of an abnormal behavioral response; also recorded: does not cause any obvious abnormal behavioral responses

Reference: patent publication US20100152225A1, “HYDROGENATED PYRIDO [4,3-B] INDOLES SUCH AS DIMEBON FOR TREATING CANINE COGNITIVE DYSFUNCTION SYNDROME” (priority 2006, published 2010)
